# According to patent US20260042801A1, “COMPOSITIONS AND METHODS FOR DYE-BOUND CYCLIZED PEPTIDES FOR MEDICAL USE” (The Texas A&M University System, priority 2022, published 2026):
# How the values were obtained:
# [1] = system: adult cortical neurons on astrocytes; assay: Neurons plated on 5c(i)-pretreated astrocytes; type: cell-based, mouse; conditions: astrocytes cultured with 5c(i) 2 days, 5c(i) removed, neurons 2DIV
# Description: FIGS. 4A-4D: 5c(i) induces Synapsin I production and reduces C3 and GSK-3s expression from astrocytes promoting neuron survival and neurite growth. Primary adult cortical astrocytes from 6-month-old male mice were incubated with 5 μM 5c(i) for 3 days. Graph represents mean±SEM of percent change in fluorescent intensity (Synapsin I and C3) or chemiluminescence (GSK-3β) relative to Vehicle (4A and 4D). Images represent the 4B) Vehicle and 4C) 5 μM 5c(i) treated groups stained with Synapsin I and DAPI. D) Cortical astrocytes from 6-month-old male mice were plated and treated with 5c(i) or Vehicle for 2 days. Cells were then washed and cortical neurons from 6-month-old male mice were added on top of the astrocytes. […] Scale bar=50 μm.
# To determine if 5c(i) can modulate astrocytes, adult astrocytes from 6-month-old male mice were treated with 5c(i) for 3 days and stained with Synapsin I and C3 to measure changes in fluorescent intensity or western blot was conducted on the cell lysate to assess changes in GSK-3β expression (FIG. 4). […] To determine if 5c(i) treated astrocytes can directly benefit neuronal recovery, astrocytes were cultured with 5c(i) for 2 days before removing 5c(i) from the culture and plating adult neurons on top of the astrocytes for 2DIV, resulting in increased neuron survival and neurite growth. […]
# [2] = system: severe T8 contusion/compression SCI; assay: Preclinical SCI model: locomotor test (BMS) and survival; type: in vivo, mouse; conditions: IP daily 5 and 25 mg/kg/day
# Description: FIG. 8: Timeline of the preclinical in vivo animal study conducted as evidence of claims. Mice underwent baseline cognitive testing and blood collection immediately before SCI. Mice sustained an SCI at 8 weeks of age. SCI model: thoracic-8 contusion (50 kdyne impact) and compression ([…]), a severe contusion/compression model that accurately represents injuries seen in the clinic. 5c(i) (5 or 25 mg/kg/day) or Vehicle were administered IP daily starting 4 hours post injury to reflect the delay found in the clinic. Locomotor behavioral testing (BMS and Rotarod) were conducted weekly for 7 weeks. 7 weeks after injury, the mice underwent cognitive behavioral testing (NOR and Y-maze) and blood collection once again. Mice were euthanized 7 weeks after sustaining an SCI and underwent perfusion and tissue preparations for further analysis.
# 9A) BMS Score and 9B) BMS Sub Score were recorded and graphed in relation to time after injury. 9C) Percent of mice surviving at 49 days post injury. […] N=6-8. Graphs show mean and SEM. […] Student's T-test.
# Open Field Basso Mouse Scale (BMS): Mice were placed in an open field for 5 minutes to allow mice to freely roam to visually evaluate (by 2 individuals) the following parameters: ankle movements, stepping pattern, coordination, paw placement, trunk instability, and tail position. The mice were scored according to the BMS scoring system^59 with a minimum score of 0 (no movement) to a maximum score of 9 (normal locomotion) followed by the BMS Sub score (assessing stepping patterns, tail movement, trunk posture, paw position, and coordination)^12,60. Rotarod: Mice were placed on a rod rotating at increasing speeds from 5 to 45 rotations per minute (rpm) in a 3-minute interval with constant acceleration to assess strength, endurance, and motor coordination^12,60. Mice were first acclimated to the rotarod with 5 habituation sessions the week before injury. Baseline testing was conducted 1 day before injury. […]
substance,measurement,setting,value
C-DIRG-C BODIPY® (fluorescent dye) [5c(i)],neurite growth on pretreated astrocytes,[1],increased
same,neuron survival on pretreated astrocytes,[1],increased
same,mice surviving at 49 days post injury,[2],improves survival
same,BMS Sub score,[2]; 7 weeks,significantly improved
same,BMS score,[2]; 7 weeks,significantly improved
